Data from the NIST ThermoML archive (doi:10.1016/j.jct.2013.10.013).
± gives the expanded uncertainty stated by the source.

Key:
[1] = xn = mol fraction of the nth substance listed; details: 101 kPa, Liquid, Vibrating tube method
[2] = 283.15 K; 101 kPa; Liquid; Vibrating tube method

CC(C)COCCO [2-(2-methylpropoxy)ethanol] + O
mass density [kg/m3], [1]
Details	x1 = 0.000617	x1 = 0.001164	x1 = 0.001812	x1 = 0.00198	x1 = 0.003969	x1 = 0.006759	x1 = 0.009969	x1 = 0.01319
283.15 K	999.515 ± 0.2	999.412 ± 0.2	999.296 ± 0.2	999.307 ± 0.2	999.013 ± 0.2	998.702 ± 0.2	998.438 ± 0.2	998.199 ± 0.2
288.15 K	998.897 ± 0.2	998.784 ± 0.2	998.655 ± 0.2	998.645 ± 0.2	998.299 ± 0.2	997.897 ± 0.2	997.523 ± 0.2	997.151 ± 0.2
293.15 K	998.017 ± 0.2	997.888 ± 0.2	997.743 ± 0.2	997.724 ± 0.2	997.322 ± 0.2	996.836 ± 0.2	996.347 ± 0.2	995.851 ± 0.2
298.15 K	996.846 ± 0.2	996.707 ± 0.2	996.548 ± 0.2	996.506 ± 0.2	996.06 ± 0.2	995.497 ± 0.2	994.904 ± 0.2	994.282 ± 0.2
303.15 K	995.459 ± 0.2	995.292 ± 0.2	995.136 ± 0.2	995.092 ± 0.2	994.592 ± 0.2	993.958 ± 0.2	993.254 ± 0.2	992.505 ± 0.2

O [water] + CC(C)COCCO
Details	mass density [kg/m3]
[1], 283.15 K, x2 = 0	999.699 ± 0.2

O [water]
Details	mass density [kg/m3]
[2]	999.699 ± 0.2

CCCCOCCO [2-butoxyethan-1-ol] + O
mass density [kg/m3], [1]
Details	x1 = 0.000906	x1 = 0.001283	x1 = 0.001685	x1 = 0.001942	x1 = 0.003834	x1 = 0.006957	x1 = 0.009993	x1 = 0.01324
283.15 K	999.515 ± 0.2	999.44 ± 0.2	999.376 ± 0.2	999.379 ± 0.2	999.137 ± 0.2	998.855 ± 0.2	998.677 ± 0.2	998.516 ± 0.2
288.15 K	998.873 ± 0.2	998.804 ± 0.2	998.733 ± 0.2	998.742 ± 0.2	998.449 ± 0.2	998.058 ± 0.2	997.764 ± 0.2	997.453 ± 0.2
293.15 K	997.98 ± 0.2	997.897 ± 0.2	997.814 ± 0.2	997.774 ± 0.2	997.436 ± 0.2	996.956 ± 0.2	996.553 ± 0.2	996.129 ± 0.2
298.15 K	996.815 ± 0.2	996.726 ± 0.2	996.633 ± 0.2	996.592 ± 0.2	996.204 ± 0.2	995.629 ± 0.2	995.12 ± 0.2	994.56 ± 0.2
303.15 K	995.386 ± 0.2	995.295 ± 0.2	995.201 ± 0.2	995.143 ± 0.2	994.715 ± 0.2	994.053 ± 0.2	993.447 ± 0.2	992.75 ± 0.2

O [water] + CCCCOCCO
Details	mass density [kg/m3]
[1], 283.15 K, x2 = 0	999.699 ± 0.2

CC(C)NCCO [2-isopropylaminoethanol] + O
mass density [kg/m3], [1]
Details	x1 = 0.00785	x1 = 0.00993	x1 = 0.0147	x1 = 0.02052	x1 = 0.02925	x1 = 0.04009	x1 = 0.04971	x1 = 0.0589	x1 = 0.06926	x1 = 0.08132
283.15 K	998.279 ± 0.2	997.915 ± 0.2	997.627 ± 0.2	997.186 ± 0.2	997.048 ± 0.2	997.046 ± 0.2	996.952 ± 0.2	996.873 ± 0.2	996.18 ± 0.2	994.687 ± 0.2
288.15 K	997.569 ± 0.2	997.164 ± 0.2	996.747 ± 0.2	996.156 ± 0.2	995.726 ± 0.2	995.322 ± 0.2	994.86 ± 0.2	994.475 ± 0.2	993.417 ± 0.2	991.662 ± 0.2
293.15 K	996.602 ± 0.2	996.129 ± 0.2	995.555 ± 0.2	994.798 ± 0.2	994.178 ± 0.2	993.399 ± 0.2	992.61 ± 0.2	991.925 ± 0.2	990.602 ± 0.2	988.598 ± 0.2
298.15 K	995.343 ± 0.2	994.859 ± 0.2	994.252 ± 0.2	993.36 ± 0.2	992.43 ± 0.2	991.335 ± 0.2	990.229 ± 0.2	989.248 ± 0.2	987.663 ± 0.2	985.438 ± 0.2
303.15 K	993.837 ± 0.2	993.31 ± 0.2	992.597 ± 0.2	991.578 ± 0.2	990.428 ± 0.2	989.011 ± 0.2	987.652 ± 0.2	986.463 ± 0.2	984.639 ± 0.2	982.2 ± 0.2

O [water] + CC(C)NCCO
Details	mass density [kg/m3]
[1], 283.15 K, x2 = 0	999.699 ± 0.2
